Drawing on ChEMBL document CHEMBL1154793, “The lecanindoles, nonsteroidal progestins from the terrestrial fungus Verticillium lecanii 6144” (J Nat Prod, 2009), this text covers IC50 and Activity for two molecules.

SMILES strings stand for the structures. Some results are limits rather than exact numbers.

One assay has as its target T1, Androgen receptor (Homo sapiens, UniProt P10275).
T1 sequence (P10275 whole entry): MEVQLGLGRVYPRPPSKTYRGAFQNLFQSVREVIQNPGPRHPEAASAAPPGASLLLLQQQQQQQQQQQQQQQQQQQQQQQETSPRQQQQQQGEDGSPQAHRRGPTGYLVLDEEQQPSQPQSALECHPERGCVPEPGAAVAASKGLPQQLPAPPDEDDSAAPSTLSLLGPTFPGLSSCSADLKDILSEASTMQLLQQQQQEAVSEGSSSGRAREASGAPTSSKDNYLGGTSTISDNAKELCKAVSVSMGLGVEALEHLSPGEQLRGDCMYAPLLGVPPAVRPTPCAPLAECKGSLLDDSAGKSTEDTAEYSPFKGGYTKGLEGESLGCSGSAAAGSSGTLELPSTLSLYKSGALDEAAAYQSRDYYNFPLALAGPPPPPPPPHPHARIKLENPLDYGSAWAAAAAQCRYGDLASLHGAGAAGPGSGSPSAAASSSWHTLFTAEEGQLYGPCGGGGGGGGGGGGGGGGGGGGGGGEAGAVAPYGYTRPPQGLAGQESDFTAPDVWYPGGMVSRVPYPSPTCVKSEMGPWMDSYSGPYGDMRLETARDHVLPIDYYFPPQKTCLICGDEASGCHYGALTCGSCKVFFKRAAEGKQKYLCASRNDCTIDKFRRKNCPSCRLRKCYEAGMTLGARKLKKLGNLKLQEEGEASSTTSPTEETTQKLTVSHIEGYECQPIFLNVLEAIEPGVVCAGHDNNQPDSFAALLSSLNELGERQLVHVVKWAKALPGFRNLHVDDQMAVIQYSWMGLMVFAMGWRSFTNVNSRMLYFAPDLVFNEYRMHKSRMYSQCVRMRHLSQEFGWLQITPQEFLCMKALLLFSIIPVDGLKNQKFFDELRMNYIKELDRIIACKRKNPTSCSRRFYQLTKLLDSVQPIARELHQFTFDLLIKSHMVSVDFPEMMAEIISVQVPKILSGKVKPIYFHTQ

A further assay concerns the target Estrogen receptor beta (Homo sapiens, UniProt Q92731). Briefly: Antagonist activity at estrogen receptor beta ligand binding domain expressed in african green monkey COS7 cells co-transfected with Gal4-LBD by luciferase reporter gene assay relative to control. It is filed as cell-based. Also noted: scale not given: the % may be the effect or the level left. Conditions: COS-7. A general note: In a reporter assay the amount or activity of a reporter protein is the signal.

Assay [1] deals with T2, Estrogen receptor (Homo sapiens) (UniProt P03372).
T2 sequence (whole entry): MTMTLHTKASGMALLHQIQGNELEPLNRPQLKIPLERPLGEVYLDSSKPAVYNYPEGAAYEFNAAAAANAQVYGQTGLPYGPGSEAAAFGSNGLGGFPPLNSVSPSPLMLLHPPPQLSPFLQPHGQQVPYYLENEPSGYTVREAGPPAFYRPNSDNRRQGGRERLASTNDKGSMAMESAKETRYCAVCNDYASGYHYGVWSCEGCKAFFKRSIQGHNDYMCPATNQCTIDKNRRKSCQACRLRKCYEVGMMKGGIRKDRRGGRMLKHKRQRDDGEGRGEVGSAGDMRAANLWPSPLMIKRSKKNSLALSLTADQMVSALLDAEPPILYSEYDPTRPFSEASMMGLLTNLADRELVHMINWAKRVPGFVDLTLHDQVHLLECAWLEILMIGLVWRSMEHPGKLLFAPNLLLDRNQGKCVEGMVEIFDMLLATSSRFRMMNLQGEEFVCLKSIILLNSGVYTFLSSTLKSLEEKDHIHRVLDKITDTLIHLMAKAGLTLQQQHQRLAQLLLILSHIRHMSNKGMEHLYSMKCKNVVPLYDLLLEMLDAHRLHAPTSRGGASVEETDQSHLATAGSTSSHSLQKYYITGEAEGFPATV
In words: Agonist activity at estrogen receptor alpha ligand binding domain expressed in african green monkey COS7 cells co-transfected with Gal4-LBD by luciferase reporter gene assay relative to control. It is filed as cell-based. Conditions: COS-7.

Assay [2] concerns the target T3, Mineralocorticoid receptor (Homo sapiens) (UniProt P08235).
T3 sequence (whole entry): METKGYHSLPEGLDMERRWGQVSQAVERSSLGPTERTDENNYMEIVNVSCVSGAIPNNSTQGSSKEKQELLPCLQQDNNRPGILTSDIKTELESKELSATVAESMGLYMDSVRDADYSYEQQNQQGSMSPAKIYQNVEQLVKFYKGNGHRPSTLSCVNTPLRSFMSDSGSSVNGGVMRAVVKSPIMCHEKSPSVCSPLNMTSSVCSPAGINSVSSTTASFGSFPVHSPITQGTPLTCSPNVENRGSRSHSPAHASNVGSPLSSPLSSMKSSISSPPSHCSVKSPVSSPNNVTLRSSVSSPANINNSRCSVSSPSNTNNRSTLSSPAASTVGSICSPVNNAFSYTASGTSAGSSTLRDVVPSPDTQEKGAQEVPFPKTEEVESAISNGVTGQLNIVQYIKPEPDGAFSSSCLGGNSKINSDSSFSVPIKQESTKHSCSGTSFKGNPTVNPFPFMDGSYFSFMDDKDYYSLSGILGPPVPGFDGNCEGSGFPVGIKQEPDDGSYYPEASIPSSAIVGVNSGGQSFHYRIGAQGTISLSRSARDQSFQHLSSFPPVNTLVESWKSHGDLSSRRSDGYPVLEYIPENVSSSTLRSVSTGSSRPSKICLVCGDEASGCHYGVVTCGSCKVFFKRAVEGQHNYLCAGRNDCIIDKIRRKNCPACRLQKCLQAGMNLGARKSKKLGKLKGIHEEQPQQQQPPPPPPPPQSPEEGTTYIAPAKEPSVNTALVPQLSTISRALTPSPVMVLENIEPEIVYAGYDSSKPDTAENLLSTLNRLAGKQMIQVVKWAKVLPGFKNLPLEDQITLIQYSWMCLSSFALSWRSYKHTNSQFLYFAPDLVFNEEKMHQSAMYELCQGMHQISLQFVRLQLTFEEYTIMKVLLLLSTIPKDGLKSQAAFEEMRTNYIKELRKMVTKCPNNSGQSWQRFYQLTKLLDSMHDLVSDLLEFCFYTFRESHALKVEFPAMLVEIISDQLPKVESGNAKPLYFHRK
Briefly: Antagonist activity at mineralocorticoid receptor ligand binding domain expressed in african green monkey COS7 cells co-transfected with Gal4-LBD by luciferase reporter gene assay relative to control. It is filed as cell-based. Also noted: scale not given: the % may be the effect or the level left. Particulars: COS-7.

As a reminder, the IC50 is the concentration that gives 50% inhibition.

Estrogen receptor beta, sequence (Q92731 whole entry, the tested form may be a part): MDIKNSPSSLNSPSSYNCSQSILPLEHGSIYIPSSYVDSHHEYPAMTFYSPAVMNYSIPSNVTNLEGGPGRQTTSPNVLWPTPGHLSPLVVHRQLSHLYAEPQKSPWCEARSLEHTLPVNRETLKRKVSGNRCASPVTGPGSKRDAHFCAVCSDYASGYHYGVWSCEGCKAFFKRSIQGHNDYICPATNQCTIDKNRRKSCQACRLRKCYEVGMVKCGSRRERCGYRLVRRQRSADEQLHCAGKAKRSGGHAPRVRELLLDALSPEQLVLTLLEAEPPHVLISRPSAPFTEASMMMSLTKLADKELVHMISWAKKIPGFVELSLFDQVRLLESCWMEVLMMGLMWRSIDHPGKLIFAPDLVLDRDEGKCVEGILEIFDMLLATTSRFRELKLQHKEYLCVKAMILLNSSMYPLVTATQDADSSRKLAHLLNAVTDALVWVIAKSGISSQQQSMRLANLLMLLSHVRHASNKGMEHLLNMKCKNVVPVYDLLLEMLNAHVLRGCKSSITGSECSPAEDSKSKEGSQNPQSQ
Description for Androgen receptor: Antagonist activity at androgen receptor ligand binding domain expressed in african green monkey COS7 cells co-transfected with Gal4-LBD by luciferase reporter gene assay

Turning to `CC1(C)C(=O)CC[C@]2(C)[C@@]3(C)c4[nH]c5ccccc5c4C[C@@H]3CC[C@@]12O` [LECANINDOLE B], the IC50 against Androgen receptor is over 10 µM. For the same molecule, the results for the Activity (on Estrogen receptor beta; in assay [1]; in assay [2]) were 12%, 8% and 47%, respectively.

In turn, `CC1(C)[C@H](O)CC[C@]2(C)[C@@]3(C)c4[nH]c5ccccc5c4C[C@@H]3CC[C@@]12O` [LECANINDOLE D] returned an IC50 at Androgen receptor of over 10 µM. The Activity on Estrogen receptor beta was determined as 64%; in assay [1] it was 35%; in assay [2], 82%.
